{"source": "patent US20250312462A1", "about": "“PAK1 DEGRADERS AND METHODS OF USE THEREOF” (INSTITUTE FOR CANCER RESEARCH D/B/A THE RESEARCH INSTITUTE …, priority 2022, published 2025)", "key": {"ERK5": {"molecular_target": "ERK5 (Homo sapiens, UniProt Q13164)", "experiment": "KINOMEscan", "conditions": "read-out: Percent Control", "protocol": "(§1) The kinase engagement assay (KINOMEscan®) was performed by DiscoverX assessing binding abilities toward a set of kinases."}, "RET": {"molecular_target": "RET (Homo sapiens, UniProt P07949)", "experiment": "KINOMEscan", "conditions": "read-out: Percent Control", "protocol": "as §1"}, "MYO3A": {"molecular_target": "MYO3A (Homo sapiens, UniProt Q8NEV4)", "experiment": "KINOMEscan", "conditions": "read-out: Percent Control", "protocol": "as §1"}, "PIK3CA(I800L)": {"molecular_target": "PIK3CA(I800L) (Homo sapiens, UniProt P42336, I800L)", "experiment": "KINOMEscan", "conditions": "read-out: Percent Control", "protocol": "as §1"}, "HCK": {"molecular_target": "HCK (Homo sapiens, UniProt P08631)", "experiment": "KINOMEscan", "conditions": "read-out: Percent Control", "protocol": "as §1"}, "WNK1": {"molecular_target": "WNK1 (Homo sapiens, UniProt Q9H4A3)", "experiment": "KINOMEscan", "conditions": "read-out: Percent Control", "protocol": "as §1"}, "CDK11": {"molecular_target": "CDK11 (Homo sapiens, UniProt Q9BWU1)", "experiment": "KINOMEscan", "conditions": "read-out: Percent Control", "protocol": "as §1"}, "MEK2": {"molecular_target": "MEK2 (Homo sapiens, UniProt P36507)", "experiment": "KINOMEscan", "conditions": "read-out: Percent Control", "protocol": "as §1"}, "BMPR1B": {"molecular_target": "BMPR1B (Homo sapiens, UniProt O00238)", "sequence (O00238 14-502)": "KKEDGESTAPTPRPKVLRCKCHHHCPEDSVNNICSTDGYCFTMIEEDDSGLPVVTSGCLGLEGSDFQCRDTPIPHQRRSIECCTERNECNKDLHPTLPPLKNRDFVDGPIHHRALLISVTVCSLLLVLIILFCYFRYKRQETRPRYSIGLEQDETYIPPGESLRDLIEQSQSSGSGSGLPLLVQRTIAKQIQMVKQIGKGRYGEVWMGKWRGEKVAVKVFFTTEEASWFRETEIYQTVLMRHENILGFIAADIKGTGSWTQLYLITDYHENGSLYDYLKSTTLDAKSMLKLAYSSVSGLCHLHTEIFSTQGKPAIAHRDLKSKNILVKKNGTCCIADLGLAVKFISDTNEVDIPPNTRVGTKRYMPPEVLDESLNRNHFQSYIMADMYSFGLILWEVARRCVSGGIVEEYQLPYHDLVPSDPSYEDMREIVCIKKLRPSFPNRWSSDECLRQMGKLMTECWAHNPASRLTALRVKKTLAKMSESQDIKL", "experiment": "KINOMEscan", "conditions": "read-out: Percent Control", "protocol": "as §1"}, "PIP5K1C": {"molecular_target": "PIP5K1C (Homo sapiens, UniProt O60331)", "experiment": "KINOMEscan", "conditions": "read-out: Percent Control", "protocol": "as §1"}, "PCTK3": {"molecular_target": "PCTK3 (Homo sapiens, UniProt Q07002)", "sequence (Q07002 whole entry)": "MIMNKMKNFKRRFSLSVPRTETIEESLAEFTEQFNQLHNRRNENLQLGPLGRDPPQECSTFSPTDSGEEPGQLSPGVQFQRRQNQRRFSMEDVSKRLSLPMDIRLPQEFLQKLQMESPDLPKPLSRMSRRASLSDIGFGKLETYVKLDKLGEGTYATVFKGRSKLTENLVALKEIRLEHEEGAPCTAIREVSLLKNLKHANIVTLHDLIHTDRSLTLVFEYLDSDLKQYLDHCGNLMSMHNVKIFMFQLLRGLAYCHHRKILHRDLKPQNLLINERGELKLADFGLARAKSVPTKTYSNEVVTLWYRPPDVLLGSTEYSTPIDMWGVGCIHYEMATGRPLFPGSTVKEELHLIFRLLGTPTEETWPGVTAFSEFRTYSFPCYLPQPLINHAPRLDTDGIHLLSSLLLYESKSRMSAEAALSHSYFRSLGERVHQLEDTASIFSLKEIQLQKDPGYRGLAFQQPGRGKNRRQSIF", "experiment": "KINOMEscan", "conditions": "read-out: Percent Control", "protocol": "as §1"}, "EPHB2": {"molecular_target": "EPHB2 (Homo sapiens, UniProt P29323)", "sequence (P29323 19-1055)": "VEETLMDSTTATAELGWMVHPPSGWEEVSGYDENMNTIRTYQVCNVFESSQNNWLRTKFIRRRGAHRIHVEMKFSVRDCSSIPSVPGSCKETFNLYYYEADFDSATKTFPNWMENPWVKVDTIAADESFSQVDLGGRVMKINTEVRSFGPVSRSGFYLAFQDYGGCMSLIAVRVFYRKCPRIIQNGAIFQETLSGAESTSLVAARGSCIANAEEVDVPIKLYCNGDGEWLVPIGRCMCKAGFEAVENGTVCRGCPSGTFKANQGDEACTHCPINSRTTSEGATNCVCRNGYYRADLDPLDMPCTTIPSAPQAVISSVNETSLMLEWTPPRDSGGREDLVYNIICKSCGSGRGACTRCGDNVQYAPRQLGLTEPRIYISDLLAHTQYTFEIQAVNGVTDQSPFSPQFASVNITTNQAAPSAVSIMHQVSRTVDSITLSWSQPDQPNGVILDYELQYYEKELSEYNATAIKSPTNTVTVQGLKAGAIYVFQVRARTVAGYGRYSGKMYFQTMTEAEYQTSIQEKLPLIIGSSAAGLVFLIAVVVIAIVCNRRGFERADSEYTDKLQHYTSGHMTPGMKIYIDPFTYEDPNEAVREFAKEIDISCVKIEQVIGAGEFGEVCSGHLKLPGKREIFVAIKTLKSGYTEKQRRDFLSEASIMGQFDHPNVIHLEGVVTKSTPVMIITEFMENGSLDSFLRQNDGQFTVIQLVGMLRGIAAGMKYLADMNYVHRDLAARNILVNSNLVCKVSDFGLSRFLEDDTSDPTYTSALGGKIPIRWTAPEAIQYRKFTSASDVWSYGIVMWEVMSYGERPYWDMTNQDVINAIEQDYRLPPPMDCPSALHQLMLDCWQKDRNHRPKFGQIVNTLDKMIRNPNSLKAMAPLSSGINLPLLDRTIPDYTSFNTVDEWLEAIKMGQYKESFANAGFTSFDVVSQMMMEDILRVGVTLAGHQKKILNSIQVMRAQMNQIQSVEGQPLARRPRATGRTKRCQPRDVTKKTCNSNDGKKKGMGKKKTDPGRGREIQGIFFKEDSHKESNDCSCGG", "experiment": "KINOMEscan", "conditions": "read-out: Percent Control", "protocol": "as §1"}, "[1]": {"molecular_target": "RSK1(Kin.Dom.1-N-terminal) (Homo sapiens, UniProt Q15418)", "experiment": "KINOMEscan", "conditions": "read-out: Percent Control", "protocol": "as §1"}, "[2]": {"molecular_target": "RSK1(Kin.Dom.2-C-terminal) (Homo sapiens, UniProt Q15418)", "experiment": "KINOMEscan", "conditions": "read-out: Percent Control", "protocol": "as §1"}, "[3]": {"molecular_target": "ABL1(F317L)-phosphorylated (Homo sapiens, UniProt P00519, F317L)", "sequence (P00519 whole entry F317L)": "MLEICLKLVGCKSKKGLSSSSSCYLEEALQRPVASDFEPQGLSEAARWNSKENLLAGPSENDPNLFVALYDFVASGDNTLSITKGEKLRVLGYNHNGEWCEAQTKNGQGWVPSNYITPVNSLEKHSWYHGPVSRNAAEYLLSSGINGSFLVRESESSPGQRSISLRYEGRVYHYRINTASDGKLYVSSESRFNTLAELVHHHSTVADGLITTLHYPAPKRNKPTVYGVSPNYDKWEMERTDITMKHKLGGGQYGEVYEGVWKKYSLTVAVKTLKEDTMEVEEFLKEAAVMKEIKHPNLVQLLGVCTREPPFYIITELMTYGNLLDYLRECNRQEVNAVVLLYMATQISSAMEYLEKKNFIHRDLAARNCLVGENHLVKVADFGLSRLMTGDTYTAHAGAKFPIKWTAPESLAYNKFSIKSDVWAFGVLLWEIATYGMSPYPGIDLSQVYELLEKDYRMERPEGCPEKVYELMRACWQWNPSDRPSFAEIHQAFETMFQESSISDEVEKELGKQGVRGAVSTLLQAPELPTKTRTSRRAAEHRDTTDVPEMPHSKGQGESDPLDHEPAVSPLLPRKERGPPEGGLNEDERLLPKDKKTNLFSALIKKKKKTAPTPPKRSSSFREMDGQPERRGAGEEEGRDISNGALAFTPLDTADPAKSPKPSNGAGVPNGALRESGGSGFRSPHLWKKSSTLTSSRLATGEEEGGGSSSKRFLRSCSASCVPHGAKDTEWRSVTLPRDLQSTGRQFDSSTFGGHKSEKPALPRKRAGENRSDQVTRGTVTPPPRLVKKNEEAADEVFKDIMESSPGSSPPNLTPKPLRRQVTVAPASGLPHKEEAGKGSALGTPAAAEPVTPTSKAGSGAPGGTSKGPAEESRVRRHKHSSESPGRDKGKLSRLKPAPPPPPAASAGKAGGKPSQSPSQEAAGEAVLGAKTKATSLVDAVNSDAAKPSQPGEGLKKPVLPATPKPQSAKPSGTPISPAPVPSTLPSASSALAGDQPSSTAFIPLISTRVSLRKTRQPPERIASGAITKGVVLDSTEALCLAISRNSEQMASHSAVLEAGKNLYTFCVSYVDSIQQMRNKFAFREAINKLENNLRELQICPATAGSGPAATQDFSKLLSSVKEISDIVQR", "experiment": "KINOMEscan", "conditions": "read-out: Percent Control", "protocol": "as §1"}, "MTOR": {"molecular_target": "MTOR (Homo sapiens, UniProt P42345)", "experiment": "KINOMEscan", "conditions": "read-out: Percent Control", "protocol": "as §1"}, "BRK": {"molecular_target": "BRK (Homo sapiens, UniProt Q13882)", "experiment": "KINOMEscan", "conditions": "read-out: Percent Control", "protocol": "as §1"}, "PRKD3": {"molecular_target": "PRKD3 (Homo sapiens, UniProt O94806)", "experiment": "KINOMEscan", "conditions": "read-out: Percent Control", "protocol": "as §1"}, "PIM3": {"molecular_target": "PIM3 (Homo sapiens, UniProt Q86V86)", "experiment": "KINOMEscan", "conditions": "read-out: Percent Control", "protocol": "as §1"}, "PRP4": {"molecular_target": "T1, PRP4 (Homo sapiens, UniProt Q13523)", "T1 construct": "purchased DiscoverX", "experiment": "KINOMEscan", "assay_type": "binding", "conditions": "read-out: Percent Control"}, "CDKL1": {"molecular_target": "CDKL1 (Homo sapiens, UniProt Q00532)", "experiment": "KINOMEscan", "conditions": "read-out: Percent Control", "protocol": "as §1"}, "LZK": {"molecular_target": "LZK (Homo sapiens, UniProt O43283)", "experiment": "KINOMEscan", "conditions": "read-out: Percent Control", "protocol": "as §1"}, "PLK2": {"molecular_target": "PLK2 (Homo sapiens, UniProt Q9NYY3)", "experiment": "KINOMEscan", "conditions": "read-out: Percent Control", "protocol": "as §1"}, "p38-gamma": {"molecular_target": "p38-gamma (Homo sapiens, UniProt P53778)", "experiment": "KINOMEscan", "conditions": "read-out: Percent Control", "protocol": "as §1"}, "[4]": {"molecular_target": "RSK4(Kin.Dom.2-C-terminal) (Homo sapiens, UniProt Q9UK32)", "experiment": "KINOMEscan", "conditions": "read-out: Percent Control", "protocol": "as §1"}, "KIT(A829P)": {"molecular_target": "KIT(A829P) (Homo sapiens, UniProt P10721, A829P)", "experiment": "KINOMEscan", "conditions": "read-out: Percent Control", "protocol": "as §1"}, "IKK-epsilon": {"molecular_target": "IKK-epsilon (Homo sapiens, UniProt Q14164)", "experiment": "KINOMEscan", "conditions": "read-out: Percent Control", "protocol": "as §1"}, "LTK": {"molecular_target": "LTK (Homo sapiens, UniProt P29376)", "experiment": "KINOMEscan", "conditions": "read-out: Percent Control", "protocol": "as §1"}, "GRK2": {"molecular_target": "GRK2 (Homo sapiens, UniProt P25098)", "sequence (P25098 whole entry)": "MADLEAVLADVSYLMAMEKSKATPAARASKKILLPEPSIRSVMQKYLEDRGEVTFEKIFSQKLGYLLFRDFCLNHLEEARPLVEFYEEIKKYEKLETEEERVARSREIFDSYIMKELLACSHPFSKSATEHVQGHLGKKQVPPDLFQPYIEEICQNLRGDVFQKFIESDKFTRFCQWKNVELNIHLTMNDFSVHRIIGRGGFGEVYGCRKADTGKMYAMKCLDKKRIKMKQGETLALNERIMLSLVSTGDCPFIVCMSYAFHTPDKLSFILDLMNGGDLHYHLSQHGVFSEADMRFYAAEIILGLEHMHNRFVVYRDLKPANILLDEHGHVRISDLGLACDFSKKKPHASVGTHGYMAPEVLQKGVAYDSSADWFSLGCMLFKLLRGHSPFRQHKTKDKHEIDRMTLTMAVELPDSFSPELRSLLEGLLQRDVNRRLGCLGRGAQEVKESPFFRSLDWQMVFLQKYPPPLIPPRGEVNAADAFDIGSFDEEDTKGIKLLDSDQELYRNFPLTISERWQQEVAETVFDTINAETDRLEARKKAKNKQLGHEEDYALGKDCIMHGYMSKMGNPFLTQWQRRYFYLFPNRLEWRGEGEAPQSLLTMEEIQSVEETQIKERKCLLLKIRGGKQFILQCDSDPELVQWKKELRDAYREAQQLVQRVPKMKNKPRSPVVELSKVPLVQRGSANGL", "experiment": "KINOMEscan", "conditions": "read-out: Percent Control", "protocol": "as §1"}, "TTK": {"molecular_target": "TTK (Homo sapiens, UniProt P33981)", "experiment": "KINOMEscan", "conditions": "read-out: Percent Control", "protocol": "as §1"}, "[5]": {"molecular_target": "JAK3(JH1domain-catalytic) (Homo sapiens, UniProt P52333)", "experiment": "KINOMEscan", "conditions": "read-out: Percent Control", "protocol": "as §1"}, "FLT3(R834Q)": {"molecular_target": "FLT3(R834Q) (Homo sapiens, UniProt P36888, R834Q)", "experiment": "KINOMEscan", "conditions": "read-out: Percent Control", "protocol": "as §1"}, "FLT3(ITD)": {"system": "FLT3(ITD)", "experiment": "KINOMEscan", "conditions": "10 μM", "protocol": "as §1"}, "WEE1": {"molecular_target": "WEE1 (Homo sapiens, UniProt P30291)", "experiment": "KINOMEscan", "conditions": "read-out: Percent Control", "protocol": "as §1"}, "PFCDPK1(P. falciparum)": {"molecular_target": "T2, PFCDPK1(P. falciparum) (Plasmodium falciparum, UniProt P62344)", "T2 construct": "purchased DiscoverX", "experiment": "KINOMEscan", "assay_type": "binding", "conditions": "read-out: Percent Control"}, "ERK3": {"molecular_target": "ERK3 (Homo sapiens, UniProt Q16659)", "sequence (Q16659 whole entry)": "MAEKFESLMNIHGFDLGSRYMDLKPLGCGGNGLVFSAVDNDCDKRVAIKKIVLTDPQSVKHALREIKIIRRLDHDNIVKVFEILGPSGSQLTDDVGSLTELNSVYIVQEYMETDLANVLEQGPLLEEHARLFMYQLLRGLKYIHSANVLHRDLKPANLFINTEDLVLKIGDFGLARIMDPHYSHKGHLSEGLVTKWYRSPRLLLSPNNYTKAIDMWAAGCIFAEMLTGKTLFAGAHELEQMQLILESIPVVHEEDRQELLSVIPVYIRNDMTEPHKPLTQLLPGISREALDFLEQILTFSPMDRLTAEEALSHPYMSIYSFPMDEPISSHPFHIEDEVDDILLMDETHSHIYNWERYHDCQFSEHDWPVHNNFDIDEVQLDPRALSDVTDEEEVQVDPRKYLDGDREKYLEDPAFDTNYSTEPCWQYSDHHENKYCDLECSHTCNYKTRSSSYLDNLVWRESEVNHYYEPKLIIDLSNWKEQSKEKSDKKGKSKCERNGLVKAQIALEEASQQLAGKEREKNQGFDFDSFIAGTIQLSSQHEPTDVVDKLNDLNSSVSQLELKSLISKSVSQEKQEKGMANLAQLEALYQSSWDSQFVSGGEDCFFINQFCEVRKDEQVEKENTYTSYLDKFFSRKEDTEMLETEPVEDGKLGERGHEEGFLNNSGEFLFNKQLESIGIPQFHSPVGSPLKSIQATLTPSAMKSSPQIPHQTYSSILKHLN", "experiment": "KINOMEscan", "conditions": "read-out: Percent Control", "protocol": "as §1"}, "STK33": {"molecular_target": "STK33 (Homo sapiens, UniProt Q9BYT3)", "sequence (Q9BYT3 whole entry)": "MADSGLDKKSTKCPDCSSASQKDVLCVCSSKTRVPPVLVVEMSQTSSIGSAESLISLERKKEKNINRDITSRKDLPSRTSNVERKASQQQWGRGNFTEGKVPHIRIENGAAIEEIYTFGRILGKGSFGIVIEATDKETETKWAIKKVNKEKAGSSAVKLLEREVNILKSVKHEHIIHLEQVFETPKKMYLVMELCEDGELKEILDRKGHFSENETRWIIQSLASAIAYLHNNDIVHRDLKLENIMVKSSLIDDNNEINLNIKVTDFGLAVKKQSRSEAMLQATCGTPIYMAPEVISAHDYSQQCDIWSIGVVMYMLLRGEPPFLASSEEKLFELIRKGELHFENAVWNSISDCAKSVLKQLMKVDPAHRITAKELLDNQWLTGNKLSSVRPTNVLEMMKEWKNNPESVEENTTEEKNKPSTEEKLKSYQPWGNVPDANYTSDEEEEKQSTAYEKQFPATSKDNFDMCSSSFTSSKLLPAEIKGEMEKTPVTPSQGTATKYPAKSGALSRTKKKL", "experiment": "KINOMEscan", "conditions": "read-out: Percent Control", "protocol": "as §1"}, "PAK4": {"molecular_target": "PAK4 (Homo sapiens, UniProt O96013)", "experiment": "Z'-LYTE FRET kinase inhibition assay", "assay_type": "biochemical", "set-up": "purchased Invitrogen", "text": "[…]. […] […]."}}, "data": [{"compound": "O=C1CCC(N2C(=O)c3cccc(NCCCCCCCCNC(=O)N4CC[C@H](NC5=Nc6cc(F)ccc6N(CC(F)F)c6ccc(Cl)cc65)C4)c3C2=O)C(=O)N1", "note": "(stereo partly drawn) [BJG-05-039, (3S)-3-((2-Chloro-5-(2,2-difluoroethyl)-8-fluoro-5H-dibenzo[b,e][1,4]diazepin-11-yl)amino)-N-(8-((2-(2,6-dioxopiperidin-3-yl)-1,3-dioxoisoindolin-4-yl)amino)octyl)pyrrolidine-1-carboxamide]", "values": [{"measurement": "remaining binding at 10 µM", "setting": "ERK5", "value": 57, "unit": "%"}, {"measurement": "remaining binding at 10 µM", "setting": "RET", "value": 46, "unit": "%"}, {"measurement": "remaining binding at 10 µM", "setting": "MYO3A", "value": 67, "unit": "%"}, {"measurement": "remaining binding at 10 µM", "setting": "PIK3CA(I800L)", "value": 100, "unit": "%"}, {"measurement": "remaining binding at 10 µM", "setting": "HCK", "value": 90, "unit": "%"}, {"measurement": "remaining binding at 10 µM", "setting": "WNK1", "value": 74, "unit": "%"}, {"measurement": "remaining binding at 10 µM", "setting": "CDK11", "value": 85, "unit": "%"}, {"measurement": "remaining binding at 10 µM", "setting": "MEK2", "value": 96, "unit": "%"}, {"measurement": "remaining binding at 10 µM", "setting": "BMPR1B", "value": 85, "unit": "%"}, {"measurement": "remaining binding at 10 µM", "setting": "PIP5K1C", "value": 96, "unit": "%"}, {"measurement": "remaining binding at 10 µM", "setting": "PCTK3", "value": 91, "unit": "%"}, {"measurement": "remaining binding at 10 µM", "setting": "EPHB2", "value": 74, "unit": "%"}, {"measurement": "remaining binding at 10 µM", "setting": "[1]", "value": 87, "unit": "%"}, {"measurement": "remaining binding at 10 µM", "setting": "[2]", "value": 48, "unit": "%"}, {"measurement": "remaining binding at 10 µM", "setting": "[3]", "value": 100, "unit": "%"}, {"measurement": "remaining binding at 10 µM", "setting": "MTOR", "value": 74, "unit": "%"}, {"measurement": "remaining binding at 10 µM", "setting": "BRK", "value": 72, "unit": "%"}, {"measurement": "remaining binding at 10 µM", "setting": "PRKD3", "value": 37, "unit": "%"}, {"measurement": "remaining binding at 10 µM", "setting": "PIM3", "value": 78, "unit": "%"}, {"measurement": "remaining binding at 10 µM", "setting": "PRP4", "value": 97, "unit": "%"}, {"measurement": "remaining binding at 10 µM", "setting": "CDKL1", "value": 99, "unit": "%"}, {"measurement": "remaining binding at 10 µM", "setting": "LZK", "value": 82, "unit": "%"}, {"measurement": "remaining binding at 10 µM", "setting": "PLK2", "value": 100, "unit": "%"}, {"measurement": "remaining binding at 10 µM", "setting": "p38-gamma", "value": 99, "unit": "%"}, {"measurement": "remaining binding at 10 µM", "setting": "[4]", "value": 45, "unit": "%"}, {"measurement": "remaining binding at 10 µM", "setting": "KIT(A829P)", "value": 92, "unit": "%"}, {"measurement": "remaining binding at 10 µM", "setting": "IKK-epsilon", "value": 100, "unit": "%"}, {"measurement": "remaining binding at 10 µM", "setting": "LTK", "value": 84, "unit": "%"}, {"measurement": "remaining binding at 10 µM", "setting": "GRK2", "value": 77, "unit": "%"}, {"measurement": "remaining binding at 10 µM", "setting": "TTK", "value": 55, "unit": "%"}, {"measurement": "remaining binding at 10 µM", "setting": "[5]", "value": 97, "unit": "%"}, {"measurement": "remaining binding at 10 µM", "setting": "FLT3(R834Q)", "value": 100, "unit": "%"}, {"measurement": "Percent Control", "setting": "FLT3(ITD)", "value": 87}, {"measurement": "remaining binding at 10 µM", "setting": "WEE1", "value": 42, "unit": "%"}, {"measurement": "remaining binding at 10 µM", "setting": "PFCDPK1(P. falciparum)", "value": 98, "unit": "%"}, {"measurement": "remaining binding at 10 µM", "setting": "ERK3", "value": 64, "unit": "%"}, {"measurement": "remaining binding at 10 µM", "setting": "STK33", "value": 75, "unit": "%"}, {"measurement": "IC50", "setting": "PAK4", "value": "> 10", "unit": "µM"}]}]}
